Results: patent US20220390426A1, “AIE PROBE AND APPLICATION THEREOF” (The Hong Kong University of Science and Technology, priority 2020, published 2022)

Molecular target: albumin (HSA) (Homo sapiens, UniProt P02768)
Experiment: Albumin detection by ASQ fluorescence in PBS buffer
Format: binding
Details: [ASQ]=100 μM, λex=430 nm
Procedure: FIG. 4A The fluorescence response of ASQ to HSA. FIG. 4B Linear plot of l/l0 at 542 nm versus HSA concentrations. l0 equals to the intensity of [HSA]=0 mg/L. FIG. 4C Selectivity study of ASQ towards albumin. l0 equals the intensity of the blank sample. [Biomolecules]=1 mg/mL. [ASQ]=100 μM, λex=430 nm.
Albumin protein is the substance carrier in blood with multiple polar or nonpolar binding sites. […] There is a very good linear relationship between the fluorescence intensity and albumin concentration (FIG. 4B).

albumin (HSA), sequence (P02768 25-609): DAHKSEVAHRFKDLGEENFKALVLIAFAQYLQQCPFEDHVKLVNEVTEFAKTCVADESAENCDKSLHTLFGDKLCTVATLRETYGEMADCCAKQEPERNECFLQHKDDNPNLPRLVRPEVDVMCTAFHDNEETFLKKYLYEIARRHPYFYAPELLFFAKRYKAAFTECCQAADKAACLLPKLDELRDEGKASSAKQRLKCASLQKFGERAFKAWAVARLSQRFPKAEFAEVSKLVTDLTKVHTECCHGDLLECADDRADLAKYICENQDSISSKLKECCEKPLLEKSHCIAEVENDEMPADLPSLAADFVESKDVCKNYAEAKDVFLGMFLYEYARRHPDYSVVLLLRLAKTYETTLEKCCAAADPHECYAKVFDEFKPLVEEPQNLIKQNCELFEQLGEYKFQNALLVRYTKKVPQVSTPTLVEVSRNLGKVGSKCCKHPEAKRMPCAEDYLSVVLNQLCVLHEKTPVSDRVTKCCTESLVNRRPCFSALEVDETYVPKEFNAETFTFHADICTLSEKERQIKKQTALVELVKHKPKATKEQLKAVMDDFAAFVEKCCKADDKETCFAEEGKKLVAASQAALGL

For `CN(C)c1ccc(C=Cc2nc3ccccc3[nH]c2=O)cc1` [ASQ], the “fluorescence emission response on addition of albumin” value (ASQ's PBS buffer solution) was “greatly enhanced” and the “selectivity towards albumin versus other common biomolecules such as hemoglobin (emission turn-on)” value ([Biomolecules]=1 mg/mL) was “good selectivity towards albumin”.
